The values below are quoted from earlier work in EP1487791B1, “A NOVEL ANTIFUNGAL MOLECULE 2-(3,4-DIMETHYL-2,5-DIHYDRO-1H-PYRROL-2-YL)- METHYLETHYL PENTANOATE” (priority 2002, dated 2003).

The conditions of the data set: reported by Zager, R.A., 2000; cited from earlier work.

Turning to `C[C@@H]1[C@H](O)[C@@H](C)/C=C/C=C/C=C/C=C/C=C/C=C/C=C/[C@H](O[C@@H]2O[C@H](C)[C@@H](O)[C@H](N)[C@@H]2O)C[C@@H]2O[C@](O)(C[C@@H](O)C[C@@H](O)[C@H](O)CC[C@@H](O)C[C@@H](O)CC(=O)O[C@H]1C)C[C@H](O)[C@H]2C(=O)O` [amphotericin B], the CT50 was 4.0 to 64.0 µg/mL.
